Results on 10 compounds are retold here after patent US5521167A, “Cyclopentanperhydrophenanthren-17β-(hydroxy or alkoxy)-17α-(Aryl or heterocyclyl)-3β-derivatives active on the cardiovascular system, and pharmaceutical compositions containing same” (Sigma-Tau Industrie Farmceutiche Riunite S.p.A., priority 1992, dated 1996).

For orientation: IC50 means the concentration at which inhibition is half-maximal. A word on the pIC50: it is the negative decadic logarithm of the IC50, by convention in mol/L. A lower pIC50 goes with a large IC50.

Structures are written as SMILES. pIC50: −log10 of the molar value.

Test [1] concerns the target T1, Na^+,K^+ -ATPase (Canis lupus familiaris, UniProt P50997).
T1 construct: Na^+,K^+ -ATPase receptor purified according to Jorghensen; from tissue
The experiment in a line: displacement of the specific ^3 H-ouabain binding from the purified Na^+,K^+ -ATPase receptor. The note with it: for IC50: ^3 H-ouabain displacement, purified Na^+,K^+ -ATPase, read-out: Binding ^3 H-Ouab. Displacement log IC50 (converted). An excerpt:
(§1) To test the affinity for the receptor site of the Na^+,K^+ -ATPase and the agonist or antagonist activity on the enzyme, the following tests were used: a) displacement of the specific ^3 H-ouabain binding from the Na^+,K^+ -ATPase receptor purified according to Jorghensen (Jorghensen P., BBA, 1974, 356, 36) and Erdmann ( Erdmann E. et al., Arzneim. Forsh., 1984, 34, 1314); b) inhibition of the activity of the purified Na^+,K^+ -ATPase measured as % of hydrolysis of ^32 P-ATP in presence and in absence of the tested compound (Doucet A. et al., Am. J. Physiol., 1986, 251, F851). The ability of these compounds to lower blood pressure in adult hypertensive MHS rats was tested according to the following scheme: systolic blood pressure (SBP) and heart rate (HR) were measured by an indirect tail-cuff method in three-month old hypertensive MHS rats before starting with the treatment (basal values). The rats were then subdivided in two groups of 7 animals each, one receiving the compound and the other, the control group, receiving only the vehicle. The compound was orally daily given, suspended in Methocel 0.5% (w/v), for ten days. SBP and HR were measured daily 6 and 24 hours after the treatment.

Test [2] addresses T1, Na^+,K^+ -ATPase. The experiment in a line: inhibition of the activity of the purified Na^+,K^+ -ATPase measured as % of hydrolysis of ^32 P-ATP. In kind it is biochemical. The settings on record: for IC50: hydrolysis of ^32 P-ATP, purified Na^+,K^+ -ATPase, read-out: Inhibitory Activity log IC50 (converted).
Description: as §1

The subject of test [3] is hypertensive MHS rats. The experiment in a line: systolic blood pressure and heart rate in hypertensive MHS rats (indirect tail-cuff, ten-day oral treatment). It counts as in vivo, rat. The settings on record: 20 mg/Kg/os daily for ten days, in METHOCEL 0.5% w/v, 7 rats; for SYSTOLIC BLOOD PRESSURE FALL IN SPONTANEOUS HYPERTENSIVE RATS (MHS), SBP: controls 171 +/- 4.5; for HR: controls 384 +/- 11.0.
Description: as §1
After ten-day treatment, washout was started for at least two days, to verify whether the treatment maintained SBP low or reestablished the basal values.

In the case of `C[C@]12CC[C@H](OCCN3CCCC3)C[C@H]1CC[C@@H]1[C@@H]2CC[C@@]2(C)[C@H]1CC[C@@]2(OCCN1CCCC1)c1ccoc1` [Comp. I-ad, 3β17β-Bis(2-(1-pyrrolidinyl)ethoxy)-17α-(3-furyl)-5β-androstane], the IC50 in test [1] is 0.398 µM. Besides, the pIC50 in test [2] is 5.50.

Turning to `C[C@]12CC[C@H](OCCCN)C[C@@H]1CC[C@@H]1[C@@H]2CC[C@@]2(C)[C@H]1CC[C@@]2(O)c1ccoc1` [Comp. I-ai, 3β-(3-Aminopropoxy)-17α-(3-furyl)-androstan-17β-ol], the pIC50 in test [1] was 6.60. The IC50 in test [2] was 1.58 µM.

On to `C[C@]12CC[C@H](OCCOCCN3CCCC3)C[C@@H]1CC[C@@H]1[C@@H]2CC[C@@]2(C)[C@H]1CC[C@@]2(OCCN1CCCC1)c1ccoc1` [Comp. I-an, 3β-(2-(2-(1-Pyrrolidinyl)ethoxy)ethoxy)-17β-(2-(1-pyrrolidinyl)ethoxy)-17α-(3-furyl)-androstane], for which, in test [3], the “SYSTOLIC BLOOD PRESSURE FALL IN SPONTANEOUS HYPERTENSIVE RATS (MHS), SBP” value was 152 +/- 5.0 mm Hg and the HR is on record as 375 +/- 9.0 beats/min.

With `C[C@]12CC[C@H](OCCN3CCCC3)C[C@@H]1CC[C@@H]1[C@@H]2CC[C@@]2(C)[C@H]1CC[C@@]2(OCCN1CCCC1)c1ccoc1` [Comp. I-ak, 3β, 17β-Bis(2-(1-pyrrolidinyl)ethoxy)-17α-(3-furyl)-androstane], in test [1], the IC50 was 0.398 µM. The negative logarithm of the IC50 (pIC50) in test [2] was 5.30.

For the compound `C[C@]12CC[C@H](OCCOCCN3CCCC3)C[C@@H]1CC[C@@H]1[C@@H]2CC[C@@]2(C)[C@H]1CC[C@@]2(OCCN)c1ccoc1` [Comp. I-am, 3β-(2-(2-(1-Pyrrolidinyl)ethoxy)ethoxy)-17β-(2-aminoethoxy)-17α-(3-furyl)-androstane], the IC50 in test [1] is 0.2 µM. Also, the IC50 in test [2] is 1.58 µM. Also, in test [3], the “SYSTOLIC BLOOD PRESSURE FALL IN SPONTANEOUS HYPERTENSIVE RATS (MHS), SBP” value was 153 +/- 5.1 mm Hg and the HR is recorded as 378 +/- 8.5 beats/min.

For `C[C@]12CC[C@H](OCCOCCN3CCCC3)CC1=CC[C@@H]1[C@@H]2CC[C@@]2(C)[C@H]1CC[C@@]2(OCCN1CCCC1)c1ccoc1` [Comp. I-ay, 3β-(2-(2-(1-pyrrolidinyl)ethoxy)ethoxy)-17β-(2-(1-pyrrolidinyl)ethoxy)-17α-(3furyl)-androst-5-ene], the IC50 in test [1] is 0.398 µM. The IC50 in test [2] was 1.58 µM. Further, in test [3], the “SYSTOLIC BLOOD PRESSURE FALL IN SPONTANEOUS HYPERTENSIVE RATS (MHS), SBP” value is reported as 149 +/- 4.8 mm Hg and the HR is reported as 395 +/- 10.0 beats/min.

On to `C[C@]12CC[C@H](SCCOCCN3CCCC3)C[C@@H]1CC[C@@H]1[C@@H]2CC[C@@]2(C)[C@H]1CC[C@@]2(OCCN1CCCC1)c1ccoc1` [Comp. I-ca, 3β-(2-(2-(1-Pyrrolidinyl)ethoxy)ethylthio)-17β-(2-(1-pyrrolidinyl)ethoxy)-17α-(3-furyl)-androstane], for which the IC50 in test [1] is 0.316 µM; in test [2], 2 µM.

Regarding `C[C@]12CC[C@H](OCCOCCN3CCCC3)C=C1CC[C@@H]1[C@@H]2CC[C@@]2(C)[C@H]1CC[C@@]2(OCCN)c1ccoc1` [Comp. I-aq, 3β-(2-(2-(1-Pyrrolidinyl)ethoxy)ethoxy)-17α-(2-aminoethoxy)-17α-(3-furyl)-androst-4-ene], in test [1], the IC50 was 0.316 µM. Besides, the pIC50 in test [2] is 5.60. Besides, in test [3], the “SYSTOLIC BLOOD PRESSURE FALL IN SPONTANEOUS HYPERTENSIVE RATS (MHS), SBP” value is given as 148 +/- 3.2 mm Hg and the HR is reported as 388 +/- 12.0 beats/min.

On to `C[C@]12CC[C@H](OCCOCCN3CCCC3)C[C@@H]1CC[C@@H]1[C@@H]2CC[C@@]2(C)[C@H]1CC[C@@]2(O)c1ccoc1` [Comp. I-al, 3β-(2-(2(1-Pyrrolidinyl)ethoxyy)ethoxy)-17α-(3-furyl)-androstan-17β-ol], for which the IC50 in test [1] was 0.501 µM; in test [2] it was 1.58 µM.

In test [1], `C[C@]12CC[C@H](O)C[C@H]1CC[C@@H]1[C@@H]2CC[C@]2(C)[C@@H](c3ccoc3)CC[C@]12O` [Ref. comp., 17β-(3-furyl)-5β-androstane-3β, 14β-diol, reference compound] gave a pIC50 of 6.30. Besides, in test [2], the pIC50 is 5.70. For the same compound, in test [3], the “SYSTOLIC BLOOD PRESSURE FALL IN SPONTANEOUS HYPERTENSIVE RATS (MHS), SBP” value is recorded as 173 +/- 4.0 mm Hg and the HR is 380 +/- 10.0 beats/min.
